The test system of assay [1] is pyr1/pyl1, pyl8/pyl9 and abi1C mutants. The assay can be described thus: seed germination on receptor mutants and ABA signalling mutant abi1C. The note with it: tested at twice the EC50. Format: in vivo, Arabidopsis. The method, then:
Prior to selecting a scaffold for optimization we conducted Arabidopsis seed germination assays to establish if the hits obtained are activity in vivo. Germination experiments were performed with surface sterilized wild type Columbia Arabidopsis thaliana seeds and abi1C (the abi1-1 allele isolated in the Columbia ecotype) plated onto 0.7% agar medium containing 1/2-x MS salts, 0.5% sucrose and differing concentrations of the test compounds. After 4d of stratification at 4° C., the plates were transferred to a growth chamber under continuous illumination and evaluated after 4 days.
Methods similar to example 3 were followed.

The next assay relates to wheat seedlings. The assay can be described thus: thermal imaging of leaf temperature (anti-transpirant activity), wheat. Type of assay: in vivo, Triticum aesitivum. The method, then:
To evaluate the effects of the optimized ligands on transpiration, we performed quantitative thermal imaging of 2 week old wheat seedlings (var. Cal Rojo) after chemical or mock treatments. Each pot contained 15 seedlings and was treated as a single replicate for a total of n=4. Seedlings were treated with 10 mL aerosolized solutions containing compounds of interest dissolved in 0.5% DMSO and 0.05% Silwet-77 (Lehle seeds). Thermal images were collected using a FLIR T62101 camera ˜24 hours post treatment. Average leaf temperatures were obtained by averaging the temperatures measured from between 10-15 ˜1 cm^2 area spots from the 15 plants sowed in each replicate pot.
To gain more detailed comparisons of the potency and persistence of different ABA agonists, we treated wheat seedlings (var. WB9229) with a range of agonist concentrations (mock, 11, 33, 100, 300 μM) and collected leaf temperature data at 24 hour intervals for 5 days. Mock treated samples were analyzed with 10 replicates and chemical treatments with 5 replicates. […] The corrected p-values for treatment effects at all time points is summarized in the inset table and highlighted yellow if a significant increase in leaf temperature was observed.

In another assay the test system is tomato plants. In words: thermal imaging of leaf temperature (anti-transpirant activity), tomato. Type of assay: in vivo, Lycopersicon esculentum. The following applies: var. UC82, 50 μM or 100 μM spray, 24 hour intervals for 5 days. The procedure: To evaluate the efficacy of Opa in a different crop species, we performed quantitative thermal imaging in tomato plants. Tomato (var. UC82), seeds were spread on a moist filter paper and incubated in a dark chamber at room temperature for 7 days, after which they were transferred to light. After the first leaves emerged, the seedlings were transferred to soil and grown on a day night cycle; 3-4 w old plants were used for thermal imaging. Before thermal imaging, topical spraying of the plants was performed with a water solution containing ABA, quinabactin or the compound of interest, 0.5% DMSO and 0.05% Silwet-77 (Lehle seeds). 20 mL of 50 μM or 100 μM solutions were sprayed on the plants and thermal images were taken with an infrared camera (FLIR T62101) at 24 hour intervals after treatment for 5 days. […] Mock treated samples were analyzed with 8 replicates and chemical treatments with 4 replicates. […] The corrected p-values for treatment effects at all time points is summarized in the inset table and highlighted yellow if a significant increase in leaf temperature was observed.

Consider 1 compound from patent publication US12161114B2, “Overpowered ABA receptor agonists” (The Regents of the University of California, priority 2018, dated 2024).

SMILES strings stand for the structures.

As for `N#Cc1c(C2CC2)cc(CC(=O)NC2(C(=O)O)CCCCC2)cc1C1CC1` [2f, 1-[2-(4-cyano-3,5-dicyclopropylphenyl)acetamido]cyclohexane-1-carboxylic acid], in assay [1], the “effect on germination in receptor mutant backgrounds” value is listed as “only show diminished activity in the pyr1/pyl1 mutant”. The “anti-transpirant activity (leaf temperature)” value in the assay with wheat seedlings (var. Cal Rojo, 50 μM, ~24 hours post treatment) is given as “highly efficacious anti-transpirant”; with tomato plants, “highly active anti-transpirant in tomato with significantly longer effects than ABA”. Further, in the assay with wheat seedlings (var. WB9229, 11, 33, 100, 300 μM, 24 hour intervals for 5 days), the “thermal response, potency and persistence” value is “potent and persistent thermal response”.
